What all share (experiment): biochemical
What all share (type): binding

The target of experiment [1] is T1, HLA-DP4 molecule DPA1*0103/DPB1*0401 (DP401) (Homo sapiens, UniProt P04440+P20036).
T1 construct: purified from various human B lymphocyte lines transformed with the Epstein Barr virus (EBV), which are homozygotes for DP; endogenous in cells
T1 sequence (P20036 29-260): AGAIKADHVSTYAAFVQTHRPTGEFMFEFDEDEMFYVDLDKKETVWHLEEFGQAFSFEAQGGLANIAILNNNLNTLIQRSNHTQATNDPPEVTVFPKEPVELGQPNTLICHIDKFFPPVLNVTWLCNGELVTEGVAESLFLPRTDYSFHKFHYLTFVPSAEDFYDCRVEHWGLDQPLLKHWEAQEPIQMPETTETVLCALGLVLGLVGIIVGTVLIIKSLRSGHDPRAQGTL
T1 sequence (P04440 30-258): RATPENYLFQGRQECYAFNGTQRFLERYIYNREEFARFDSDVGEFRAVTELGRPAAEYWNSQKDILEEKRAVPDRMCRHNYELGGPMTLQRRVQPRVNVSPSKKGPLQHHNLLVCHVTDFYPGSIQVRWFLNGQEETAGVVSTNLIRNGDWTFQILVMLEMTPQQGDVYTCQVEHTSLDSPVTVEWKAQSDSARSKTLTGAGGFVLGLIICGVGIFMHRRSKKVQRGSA

Experiment [2] addresses T2, HLA-DP4 molecule DPA1*0103/DPB1*0402 (DP402) (Homo sapiens, UniProt P04440+P20036, A65V/A84D/A85E/L207M).
T2 construct: purified from various human B lymphocyte lines transformed with the Epstein Barr virus (EBV), which are homozygotes for DP; endogenous in cells
T2 sequence (P20036 29-260): T1 sequence (P20036 29-260)
T2 sequence (P04440 30-258 A65V/A84D/A85E): T1 sequence (P04440 30-258) with A36V, A55D, A56E

For experiment [3], the target named is T3, HLA-DP4 molecule DPA1*0103/DPB1*0402 (DP402) (Homo sapiens, UniProt P04440+P20036).
T3 construct: purified from various human B lymphocyte lines transformed with the Epstein Barr virus (EBV), which are homozygotes for DP; endogenous in cells
T3 sequence (P20036 29-260): T1 sequence (P20036 29-260)
T3 sequence (P04440 30-258 A65V/A84D/A85E): T1 sequence (P04440 30-258) with A36V, A55D, A56E

The values that follow come from US20100324829A1, “METHOD OF SELECTING HLA-DP4 LIGANDS AND THE APPLICATIONS THEREOF” (priority 2001, published 2010).

Where a chain is given by its changes, count along the chain named. Where a SMILES comes first, the peptide text is derived from it.

For `CC(C)C[C@H](NC(=O)[C@H](Cc1ccccc1)NC(=O)[C@@H](NC(=O)[C@@H]1CCCN1C(=O)[C@H](CC(C)C)NC(=O)[C@@H](N)Cc1ccccc1)C(C)C)C(=O)N[C@@H](C)C(=O)N[C@@H](CCC(N)=O)C(=O)N1CCC[C@H]1C(=O)N1CCC[C@H]1C(=O)N[C@@H](CO)C(=O)NCC(=O)N[C@@H](CCC(N)=O)C(=O)N[C@@H](CCCNC(=N)N)C(=O)N[C@@H](CCCNC(=N)N)C(=O)O` [NY-ESO1 166-180], the concentration for half-maximal inhibition (IC50) (usually the point on the concentration scale where inhibition reaches its midpoint) in experiment [1] (IC50 (nM) 401, Table XIII, binding to DPB1*0401, competition binding assay) is greater than 10000 nM; in experiment [2] (IC50 (nM) 402, Table XIII, binding to DPB1*0402, competition binding assay), greater than 10000 nM.
The compound `CC(C)C[C@H](NC(=O)[C@H](CCCNC(=N)N)NC(=O)[C@H](C)NC(=O)[C@H](C)NC(=O)[C@H](CC(C)C)NC(=O)[C@@H]1CCCN1C(=O)[C@H](CCC(=O)O)NC(=O)[C@H](Cc1ccccc1)NC(=O)[C@H](CCC(N)=O)NC(=O)[C@@H](NC(=O)[C@H](C)NC(=O)[C@H](C)N)[C@@H](C)O)C(=O)O` [UNK6-17] (H-AATQFEPLAARL-OH) gave an IC50 in experiment [2] (IC50 (nM) 402, peptides derived from UNK1, tracer bUNK 1-17 10 nM, pH 5, 24 h) of 6000 nM.
Turning to KYAAATQFEPLAA [UNK F5A], the “Loss of binding to DP*0401 (ratio of the IC50 values for the mutant peptide and for the UNK1 peptide)” value in experiment [1] is on record as 41. Besides, the “Loss of binding to DP*0402 (ratio of the IC50 values for the mutant peptide and for the UNK1 peptide)” value in experiment [3] came out at 5.7.
The like results for KYFAATQFEPAAA [UNK L13A] were, in that order, 3.1 and 2.3.
In the same order, the values of KYFAATQFEPRAA [UNK L13R] are 64 and 43.
Regarding KYFAKTQFEPLAA [UNK A7K], in experiment [1], the “Loss of binding to DP*0401 (ratio of the IC50 values for the mutant peptide and for the UNK1 peptide)” value was found to be 2. For the same compound, the “Loss of binding to DP*0402 (ratio of the IC50 values for the mutant peptide and for the UNK1 peptide)” value in experiment [3] was found to be 1.2.
Consider KYTAATQFEPLAA [UNK F5T], for which the “Loss of binding to DP*0401 (ratio of the IC50 values for the mutant peptide and for the UNK1 peptide)” value in experiment [1] is given as 234. Further, the “Loss of binding to DP*0402 (ratio of the IC50 values for the mutant peptide and for the UNK1 peptide)” value in experiment [3] was 126.
The like results for KYFAATQEEPLAA [UNK F10E] were, in that order, 1405 and 1190.
On to KYFAATQFEPLAK [UNK A15K], for which the “Loss of binding to DP*0401 (ratio of the IC50 values for the mutant peptide and for the UNK1 peptide)” value in experiment [1] worked out at 1.7. Moreover, the “Loss of binding to DP*0402 (ratio of the IC50 values for the mutant peptide and for the UNK1 peptide)” value in experiment [3] was determined as 1.4.
The like results for KYFAATQYEPLAA [UNK F10Y] were, in that order, 2.4 and 3.4.
In the same order, the values of KYFAAEQFEPLAA [UNK T8E] are 2.7 and 3.7.
On to KYFAATQLEPLAA [UNK F10L], for which the “Loss of binding to DP*0401 (ratio of the IC50 values for the mutant peptide and for the UNK1 peptide)” value in experiment [1] turned out to be 7.2. Moreover, the “Loss of binding to DP*0402 (ratio of the IC50 values for the mutant peptide and for the UNK1 peptide)” value in experiment [3] was found to be 6.7.
In the same order, the values of KYFAAFQFEPLAA [UNK T8F] are 2.7 and 1.7.
The like results for KYEAATQFEPLAA [UNK F5E] were, in that order, 117 and 123.
